In ChEMBL document CHEMBL5678804 (Cancer Cell, 2011):

How the values were obtained:
[1] = target: Mitogen-activated protein kinase 13 (Homo sapiens, UniProt O15264); assay: Inhibition of human wild type p38 delta using RBER-CHKtide as substrate preincubated for 2 hrs followed by ATP addition and measured every 2 mins for […] by spectrophotometric analysis
[2] = target: MAP kinase-activated protein kinase 2 (Homo sapiens, UniProt P49137); assay: Inhibition of human wild type MAPKAPK2 using RBER-CHKtide as substrate preincubated for 2 hrs followed by ATP addition and measured every 2 mins for […] by spectrophotometric analysis
Sequence of MAP kinase-activated protein kinase 2 (P49137 whole entry): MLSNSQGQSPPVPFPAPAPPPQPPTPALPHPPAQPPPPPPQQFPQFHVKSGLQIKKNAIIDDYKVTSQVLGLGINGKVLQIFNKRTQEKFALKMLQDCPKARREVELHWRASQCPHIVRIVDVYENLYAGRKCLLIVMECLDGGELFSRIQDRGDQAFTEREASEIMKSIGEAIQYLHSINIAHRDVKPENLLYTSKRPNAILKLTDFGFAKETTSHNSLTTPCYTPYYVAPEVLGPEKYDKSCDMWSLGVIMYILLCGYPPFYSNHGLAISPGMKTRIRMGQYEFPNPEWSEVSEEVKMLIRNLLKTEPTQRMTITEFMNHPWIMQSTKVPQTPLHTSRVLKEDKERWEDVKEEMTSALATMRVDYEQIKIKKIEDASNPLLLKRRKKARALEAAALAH

[3] = target: Serine/threonine-protein kinase PLK1 (Homo sapiens, UniProt P53350); assay: Inhibition of human wild type PLK1 using RBER-CHKtide as substrate preincubated for 2 hrs followed by ATP addition and measured every 2 mins for […] by spectrophotometric analysis
Sequence of Serine/threonine-protein kinase PLK1 (P53350 whole entry): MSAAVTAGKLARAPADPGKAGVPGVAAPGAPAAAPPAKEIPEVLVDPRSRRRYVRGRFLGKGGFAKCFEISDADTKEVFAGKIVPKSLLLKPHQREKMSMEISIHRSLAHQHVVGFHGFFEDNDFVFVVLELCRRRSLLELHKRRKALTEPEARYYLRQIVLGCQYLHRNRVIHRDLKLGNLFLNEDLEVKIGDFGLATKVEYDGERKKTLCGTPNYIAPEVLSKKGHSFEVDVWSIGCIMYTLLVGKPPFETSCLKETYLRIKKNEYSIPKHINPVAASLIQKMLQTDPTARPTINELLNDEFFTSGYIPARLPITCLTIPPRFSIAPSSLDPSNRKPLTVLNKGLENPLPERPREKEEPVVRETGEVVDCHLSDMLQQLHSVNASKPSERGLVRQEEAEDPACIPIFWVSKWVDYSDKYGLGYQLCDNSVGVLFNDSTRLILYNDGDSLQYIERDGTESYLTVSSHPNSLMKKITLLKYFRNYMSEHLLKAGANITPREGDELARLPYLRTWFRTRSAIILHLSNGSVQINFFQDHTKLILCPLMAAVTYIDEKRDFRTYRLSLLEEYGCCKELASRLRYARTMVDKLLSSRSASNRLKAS

[4] = target: Mitogen-activated protein kinase kinase kinase 14 (Homo sapiens, UniProt Q99558); assay: Inhibition of human wild type NIK using RBER-CHKtide as substrate preincubated for 2 hrs followed by ATP addition and measured every 2 mins for […] by spectrophotometric analysis
Sequence of Mitogen-activated protein kinase kinase kinase 14 (Q99558 whole entry, the tested form may be a part): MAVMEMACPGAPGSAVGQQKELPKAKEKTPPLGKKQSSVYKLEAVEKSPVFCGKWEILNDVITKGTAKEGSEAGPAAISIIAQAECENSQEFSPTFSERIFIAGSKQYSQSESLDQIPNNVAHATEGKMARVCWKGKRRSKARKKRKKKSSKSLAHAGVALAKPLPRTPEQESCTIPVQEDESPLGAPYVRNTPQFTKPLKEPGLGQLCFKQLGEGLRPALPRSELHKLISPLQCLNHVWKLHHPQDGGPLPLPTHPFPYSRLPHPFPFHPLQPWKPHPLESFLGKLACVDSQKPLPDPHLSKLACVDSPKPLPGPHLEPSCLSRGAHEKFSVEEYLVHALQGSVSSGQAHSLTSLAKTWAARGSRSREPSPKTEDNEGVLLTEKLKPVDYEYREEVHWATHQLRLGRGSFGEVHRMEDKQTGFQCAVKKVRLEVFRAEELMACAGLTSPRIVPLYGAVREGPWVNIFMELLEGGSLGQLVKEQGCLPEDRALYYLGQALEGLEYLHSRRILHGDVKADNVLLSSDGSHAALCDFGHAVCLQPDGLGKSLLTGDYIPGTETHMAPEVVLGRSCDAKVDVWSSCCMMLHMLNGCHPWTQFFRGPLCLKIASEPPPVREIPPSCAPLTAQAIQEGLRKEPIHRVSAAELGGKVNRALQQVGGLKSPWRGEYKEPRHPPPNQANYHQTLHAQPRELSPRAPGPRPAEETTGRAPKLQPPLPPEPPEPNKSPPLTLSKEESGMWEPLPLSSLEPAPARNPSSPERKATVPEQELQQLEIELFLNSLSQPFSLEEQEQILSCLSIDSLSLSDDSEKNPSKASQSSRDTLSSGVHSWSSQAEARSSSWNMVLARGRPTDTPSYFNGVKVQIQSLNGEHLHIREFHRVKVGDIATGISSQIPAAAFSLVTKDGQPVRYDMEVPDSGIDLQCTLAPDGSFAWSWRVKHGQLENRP

LIM domain kinase 1 = LIM domain kinase 1 (Homo sapiens, UniProt P53667); assay: Inhibition of human wild type LIMK1 using CFL2 as substrate preincubated for 2 hrs followed by ATP addition and measured every 2 mins for […] by spectrophotometric analysis
[5] = target: Serine/threonine-protein kinase pim-2 (Homo sapiens, UniProt Q9P1W9); assay: Inhibition of human wild type PIM2 using RBER-GSK3(14to 27) as substrate preincubated for 2 hrs followed by ATP addition and measured every 2 mins for […] by spectrophotometric analysis
[6] = Inhibition of human wild type CDK2/A using RBER-CHKtide as substrate preincubated for 2 hrs followed by ATP addition and measured every 2 mins for […] by spectrophotometric analysis
Wee1-like protein kinase = Wee1-like protein kinase (Homo sapiens, UniProt P30291); assay: Inhibition of human wild type WEE1 using Poly(Ala,Glu,Lys,Tyr)6:2:5:1 as substrate preincubated for 2 hrs followed by ATP addition and measured every 2 mins for […] by spectrophotometric analysis
Sequence of Wee1-like protein kinase (P30291 whole entry): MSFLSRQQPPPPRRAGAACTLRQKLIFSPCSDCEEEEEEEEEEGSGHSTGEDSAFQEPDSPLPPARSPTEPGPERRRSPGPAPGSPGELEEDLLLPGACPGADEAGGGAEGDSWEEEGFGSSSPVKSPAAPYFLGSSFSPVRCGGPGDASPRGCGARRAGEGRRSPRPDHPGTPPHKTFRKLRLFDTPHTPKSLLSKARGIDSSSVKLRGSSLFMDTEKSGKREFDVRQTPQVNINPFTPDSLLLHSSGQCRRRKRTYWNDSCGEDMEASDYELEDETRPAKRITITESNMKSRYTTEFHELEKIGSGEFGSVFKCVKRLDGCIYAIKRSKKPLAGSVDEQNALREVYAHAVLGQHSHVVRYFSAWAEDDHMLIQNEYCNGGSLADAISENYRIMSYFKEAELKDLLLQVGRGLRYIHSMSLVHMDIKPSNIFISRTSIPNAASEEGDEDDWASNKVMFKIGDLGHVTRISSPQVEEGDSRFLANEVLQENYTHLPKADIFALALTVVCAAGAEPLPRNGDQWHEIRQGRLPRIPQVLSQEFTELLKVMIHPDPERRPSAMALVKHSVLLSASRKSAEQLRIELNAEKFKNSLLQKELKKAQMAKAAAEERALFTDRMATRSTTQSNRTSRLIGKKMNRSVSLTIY

[7] = target: Dual specificity mitogen-activated protein kinase kinase 6 (Homo sapiens, UniProt P52564); assay: Inhibition of human wild type MKK6 using p38-alpha KA as substrate preincubated for 2 hrs followed by ATP addition and measured every 2 mins for […] by spectrophotometric analysis
[8] = target: cGMP-dependent protein kinase 2 (Homo sapiens, UniProt Q13237); assay: Inhibition of human wild type PKG2 using RBER-GSK3(14to 27) as substrate preincubated for 2 hrs followed by ATP addition and measured every 2 mins for […] by spectrophotometric analysis
SRSF protein kinase 1 = SRSF protein kinase 1 (Homo sapiens, UniProt Q96SB4); assay: Inhibition of human wild type SRPK1 using MBP as substrate preincubated for 2 hrs followed by ATP addition and measured every 2 mins for […] by spectrophotometric analysis
Sequence of SRSF protein kinase 1 (Q96SB4 whole entry): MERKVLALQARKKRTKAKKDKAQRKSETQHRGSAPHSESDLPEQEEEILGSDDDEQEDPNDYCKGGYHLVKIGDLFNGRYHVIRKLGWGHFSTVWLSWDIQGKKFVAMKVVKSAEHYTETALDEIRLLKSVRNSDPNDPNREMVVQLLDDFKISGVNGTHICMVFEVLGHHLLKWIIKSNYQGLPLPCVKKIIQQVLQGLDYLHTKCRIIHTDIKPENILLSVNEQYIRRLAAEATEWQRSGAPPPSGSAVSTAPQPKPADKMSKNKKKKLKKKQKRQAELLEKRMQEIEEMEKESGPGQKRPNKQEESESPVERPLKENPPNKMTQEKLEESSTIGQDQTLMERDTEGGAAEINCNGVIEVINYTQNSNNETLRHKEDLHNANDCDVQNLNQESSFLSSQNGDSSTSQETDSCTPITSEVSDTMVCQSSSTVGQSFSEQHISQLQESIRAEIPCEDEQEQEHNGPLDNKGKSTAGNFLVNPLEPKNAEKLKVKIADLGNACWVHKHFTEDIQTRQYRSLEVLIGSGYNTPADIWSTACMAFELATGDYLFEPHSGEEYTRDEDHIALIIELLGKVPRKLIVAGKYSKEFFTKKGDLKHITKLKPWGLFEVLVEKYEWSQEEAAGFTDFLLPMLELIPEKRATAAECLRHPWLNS

[9] = target: Macrophage-stimulating protein receptor (Homo sapiens, UniProt Q04912); assay: Inhibition of human wild type RON using PolyEY as substrate preincubated for 2 hrs followed by ATP addition and measured every 2 mins for […] by spectrophotometric analysis
[10] = target: Tyrosine-protein kinase ABL1 (Homo sapiens, UniProt P00519); settings: Sf9, time 2.0 hrs
Insulin receptor = Insulin receptor (Homo sapiens, UniProt P06213); assay: Inhibition of human wild type IR using Poly(Ala,Glu,Lys,Tyr)6:2:5:1 as substrate preincubated for 2 hrs followed by ATP addition and measured every 2 mins for […] by spectrophotometric analysis
Sequence of Insulin receptor (P06213 28-758 limits assumed): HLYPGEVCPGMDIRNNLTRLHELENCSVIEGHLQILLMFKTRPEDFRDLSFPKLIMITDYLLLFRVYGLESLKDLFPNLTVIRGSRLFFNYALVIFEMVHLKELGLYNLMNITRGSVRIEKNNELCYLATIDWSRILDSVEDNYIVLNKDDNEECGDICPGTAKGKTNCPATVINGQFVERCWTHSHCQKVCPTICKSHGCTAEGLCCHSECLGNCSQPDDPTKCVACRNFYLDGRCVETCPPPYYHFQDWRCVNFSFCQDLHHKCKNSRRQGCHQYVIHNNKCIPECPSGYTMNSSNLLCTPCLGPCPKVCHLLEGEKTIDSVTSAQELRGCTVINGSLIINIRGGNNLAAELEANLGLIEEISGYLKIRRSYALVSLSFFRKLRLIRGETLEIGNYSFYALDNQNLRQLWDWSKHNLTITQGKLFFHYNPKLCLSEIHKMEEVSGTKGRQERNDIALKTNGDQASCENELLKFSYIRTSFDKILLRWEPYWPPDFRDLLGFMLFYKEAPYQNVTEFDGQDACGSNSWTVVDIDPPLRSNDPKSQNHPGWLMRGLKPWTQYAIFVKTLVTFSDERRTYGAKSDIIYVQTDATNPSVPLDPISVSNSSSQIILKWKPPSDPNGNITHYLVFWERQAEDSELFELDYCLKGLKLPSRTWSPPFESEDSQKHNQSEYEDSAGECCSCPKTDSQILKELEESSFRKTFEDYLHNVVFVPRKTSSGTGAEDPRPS
Sequence of Insulin receptor (P06213 763-1382 limits assumed): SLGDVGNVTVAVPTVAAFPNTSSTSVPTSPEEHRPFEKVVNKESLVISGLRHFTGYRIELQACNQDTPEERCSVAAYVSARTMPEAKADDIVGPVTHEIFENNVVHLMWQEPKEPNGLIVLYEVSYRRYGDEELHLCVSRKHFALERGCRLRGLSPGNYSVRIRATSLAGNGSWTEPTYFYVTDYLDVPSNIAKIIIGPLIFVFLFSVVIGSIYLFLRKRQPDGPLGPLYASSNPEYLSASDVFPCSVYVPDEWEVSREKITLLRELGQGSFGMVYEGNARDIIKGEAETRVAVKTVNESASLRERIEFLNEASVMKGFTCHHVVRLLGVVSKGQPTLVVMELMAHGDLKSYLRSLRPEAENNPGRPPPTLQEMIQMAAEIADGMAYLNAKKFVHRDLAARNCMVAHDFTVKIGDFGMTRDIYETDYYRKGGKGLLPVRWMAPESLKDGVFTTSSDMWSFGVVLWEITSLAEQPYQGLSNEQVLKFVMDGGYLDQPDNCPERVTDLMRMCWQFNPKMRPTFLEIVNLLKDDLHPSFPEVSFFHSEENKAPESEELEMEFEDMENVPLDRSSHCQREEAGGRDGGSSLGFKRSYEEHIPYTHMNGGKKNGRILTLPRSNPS

[11] = target: Mitogen-activated protein kinase kinase kinase kinase 4 (Homo sapiens, UniProt O95819); assay: Inhibition of human wild type HGK using Casein as substrate preincubated for 2 hrs followed by ATP addition and measured every 2 mins for […] by spectrophotometric analysis
[12] = target: Dual specificity tyrosine-phosphorylation-regulated kinase 1A (Homo sapiens, UniProt Q13627); assay: Inhibition of human wild type DYRK1 using RBER-CHKtide as substrate preincubated for 2 hrs followed by ATP addition and measured every 2 mins for […] by spectrophotometric analysis
[13] = target: Mitogen-activated protein kinase 14 (Homo sapiens, UniProt Q16539); assay: Inhibition of human wild type p38 alpha using ATF2 as substrate preincubated for 2 hrs followed by ATP addition and measured every 2 mins for […] by spectrophotometric analysis
Sequence of Mitogen-activated protein kinase 14 (Q16539 whole entry): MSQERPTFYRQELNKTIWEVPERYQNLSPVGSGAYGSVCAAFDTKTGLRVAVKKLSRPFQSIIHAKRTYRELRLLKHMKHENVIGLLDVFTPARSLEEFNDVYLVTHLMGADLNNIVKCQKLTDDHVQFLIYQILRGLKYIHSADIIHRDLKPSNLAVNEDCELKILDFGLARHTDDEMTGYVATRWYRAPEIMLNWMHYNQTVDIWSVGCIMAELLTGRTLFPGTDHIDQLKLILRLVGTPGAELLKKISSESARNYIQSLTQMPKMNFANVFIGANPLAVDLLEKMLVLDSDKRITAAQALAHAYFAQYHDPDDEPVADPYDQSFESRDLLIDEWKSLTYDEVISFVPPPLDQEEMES

[14] = target: Tyrosine-protein kinase Srms (Homo sapiens, UniProt Q9H3Y6); assay: Inhibition of human wild type SRMS using PolyEY as substrate preincubated for 2 hrs followed by ATP addition and measured every 2 mins for […] by spectrophotometric analysis

IC50 [1]: > 1000 nM | IC50 [2]: > 1000 nM | IC50 [3]: > 1000 nM | IC50 [4]: > 1000 nM | IC50 (LIM domain kinase 1): 61 nM | IC50 [5]: > 1000 nM | IC50 [6]: > 1000 nM | IC50 (Wee1-like protein kinase): > 1000 nM | IC50 [7]: > 1000 nM | IC50 [8]: > 1000 nM | IC50 (SRSF protein kinase 1): > 1000 nM | IC50 [9]: 300 nM | Kdiss [10]: 3.33e-05 s⁻¹ | IC50 (Insulin receptor): > 1000 nM | IC50 [11]: 45 nM | IC50 [12]: > 1000 nM | IC50 [13]: 110 nM | IC50 [14]: 370 nM
SMILES: CNC(=O)c1cc(Oc2ccc(NC(=O)Nc3cc(C(C)(C)C)nn3-c3ccc4ncccc4c3)c(F)c2)ccn1 [REBASTINIB]
